Data as given in ChEMBL document CHEMBL3045921, “Synthesis and Acaricidal Activity of Pyrazole-5-carboxamide Derivatives” (1991).

Experiments:
Type in all cases: functional
Conditions in all cases: 120 h
Tetranychus urticae [1] = test: Acaricidal activity against Tetranychus urticae (two-spotted spider mite) in kidney bean leaf assessed as mortality at 500 ppm at 25 degC measured after 5 days
Tetranychus urticae [2] = test: Acaricidal activity against Tetranychus urticae (two-spotted spider mite) in kidney bean leaf assessed as mortality at 50 ppm at 25 degC measured after 5 days
Tetranychus urticae [3] = test: Acaricidal activity against Tetranychus urticae (two-spotted spider mite) in kidney bean leaf assessed as mortality at 200 ppm at 25 degC measured after 5 days
Tetranychus urticae [4] = test: Acaricidal activity against Tetranychus urticae (two-spotted spider mite) in kidney bean leaf assessed as mortality at 3.1 ppm at 25 degC measured after 5 days
Tetranychus urticae [5] = test: Acaricidal activity against Tetranychus urticae (two-spotted spider mite) in kidney bean leaf assessed as mortality at 12.5 ppm at 25 degC measured after 5 days

Row | SMILES | mortality at 500 ppm (Tetranychus urticae [1]) | mortality at 50 ppm (Tetranychus urticae [2]) | mortality at 200 ppm (Tetranychus urticae [3]) | mortality at 3.1 ppm (Tetranychus urticae [4]) | mortality at 12.5 ppm (Tetranychus urticae [5])
1 | CCc1nn(C)c(C(=O)NCc2ccc([Si](C)(C)C)cc2)c1Cl | 100% | 100% | 100% | 0% | 80%
2 | Cc1nn(C)c(C(=O)Nc2ccc(C(C)(C)C)cc2)c1Br | 0% | 0% | 0% | – | –
3 | Cc1nn(C)c(C(=O)NCc2cccc(C(F)(F)F)c2)c1Cl | 0% | 0% | 0% | – | –
4 | CC(=O)Nc1c(C)nn(C)c1C(=O)NCc1ccc(C(C)(C)C)cc1 | 0% | 0% | 0% | 0% | 0%
5 | CCOCCOc1ccc(CNC(=O)c2c(Cl)c(CC)nn2C)cc1 | 80% | 0% | 30% | – | –
6 | CCCCCc1ccc(CNC(=O)c2c(Cl)c(CC)nn2C)cc1 | 100% | 100% | 100% | 30% | 80%
7 | CCc1nn(C)c(C(=O)NCc2ccc(SC)cc2)c1Cl | 100% | 0% | 80% | – | –
8 | Cc1nn(C)c(C(=O)NCc2ccccc2)c1Br | 0% | 0% | 0% | – | –
9 | Cc1nn(C)c(C(=O)NCc2ccc(C(F)(F)F)cc2)c1Cl | 100% | 80% | 100% | – | –
10 | CCc1nn(C)c(C(=O)NCc2ccc(C(F)(F)F)cc2)c1Cl | 100% | 30% | 80% | – | –
11 | CCOCc1ccc(CNC(=O)c2c(Cl)c(CC)nn2C)cc1 | 100% | 0% | 80% | – | –
12 | CCCc1ccc(CNC(=O)c2c(Cl)c(CC)nn2C)cc1 | 100% | 0% | 30% | 0% | 0%
13 | CCOc1ccc(CNC(=O)c2c(Cl)c(CC)nn2C)cc1 | 0% | 0% | 0% | – | –
14 | Cc1nn(C)c(C(=O)NCc2ccc(C(C)(C)C)cc2)c1OC(F)F | 100% | 0% | 0% | 0% | 0%
15 | CCCNc1ccc(CNC(=O)c2c(Cl)c(CC)nn2C)cc1 | 80% | 0% | 0% | – | –
16 | CCc1nn(C)c(C(=O)NCc2ccc(Br)cc2)c1Cl | 0% | 0% | 0% | – | –
17 | CCc1nn(C)c(C(=O)NCc2ccc(CC(C)C)cc2)c1Cl | 100% | 80% | 100% | 0% | 30%
18 | CCc1nn(C)c(C(=O)NCc2ccc(C)cc2)c1Cl | 0% | 0% | 0% | 0% | 0%
19 | CCc1nn(C)c(C(=O)NCc2ccc(C(C)CC)cc2)c1Cl (stereo not given) | 100% | 100% | 100% | 0% | 0%

Row | SMILES | mortality at 500 ppm (Tetranychus urticae [1]) | mortality at 50 ppm (Tetranychus urticae [2]) | mortality at 200 ppm (Tetranychus urticae [3]) | mortality at 3.1 ppm (Tetranychus urticae [4]) | mortality at 12.5 ppm (Tetranychus urticae [5])
20 | CCc1nn(C)c(C(=O)NCc2ccc([N+](=O)[O-])cc2)c1Cl | 0% | 0% | 0% | – | –
21 | Cc1n[nH]c(C(=O)NCc2ccc(C(C)(C)C)cc2)c1Cl | 0% | 0% | 0% | – | –
22 | CCc1nn(C)c(C(=O)NCc2ccc(C3CC3)cc2)c1Cl | 30% | 0% | 0% | 0% | 0%
23 | CCc1nn(C)c(C(=O)NCc2ccc(OCC(F)(F)F)cc2)c1Cl | 80% | 0% | 30% | – | –
24 | CCCc1nn(C)c(C(=O)NCc2ccc(C(C)(C)C)cc2)c1Cl | 100% | 30% | 80% | 0% | 0%
25 | Cc1nn(Cc2ccccc2)c(C(=O)NCc2ccc(C(C)(C)C)cc2)c1Cl | 0% | 0% | 0% | – | –
26 | Cc1nn(C)c(C(=O)NC(c2ccccc2)c2ccccc2)c1Br | 0% | 0% | 0% | – | –
27 | CCc1nn(C)c(C(=O)NCc2ccc(CC(C)(C)C)cc2)c1Cl | 100% | 100% | 100% | 0% | 80%
28 | CCn1nc(C)c(Cl)c1C(=O)NCc1ccc(C(C)(C)C)cc1 | 0% | 0% | 0% | – | –
29 | CCCCOc1ccc(CNC(=O)c2c(Cl)c(CC)nn2C)cc1 | 100% | 30% | 80% | – | –
30 | Cn1ncc(Cl)c1C(=O)NCc1ccc(C(C)(C)C)cc1 | 100% | 30% | 100% | 0% | 0%
31 | Cc1nn(C)c(C(=O)NC(C)(C)C)c1Br | 0% | 0% | 0% | – | –
32 | CCCCc1ccc(CNC(=O)c2c(Cl)c(CC)nn2C)cc1 | 100% | 100% | 100% | 0% | 80%
33 | Cc1cc(C(=O)NCc2ccc(C(C)(C)C)cc2)n(C)n1 | 100% | 100% | 100% | 0% | 30%
34 | Cc1nn(C)c(C(=O)NCc2ccc(C(C)(C)C)cc2)c1[N+](=O)[O-] | 0% | 0% | 0% | 0% | 0%
35 | Cc1nn(C(C)C)c(C(=O)NCc2ccc(C(C)(C)C)cc2)c1Cl | 0% | 0% | 0% | – | –
36 | CCc1nn(C)c(C(=O)NCc2ccc(S(C)(=O)=O)cc2)c1Cl | 0% | 0% | 0% | – | –
37 | Cn1nc(-c2ccccc2)c(Cl)c1C(=O)NCc1ccc(C(C)(C)C)cc1 | 0% | 0% | 0% | 0% | 0%
38 | CC(C)Cc1nn(C)c(C(=O)NCc2ccc(C(C)(C)C)cc2)c1Cl | 0% | 0% | 0% | 0% | 0%

Row | SMILES | mortality at 500 ppm (Tetranychus urticae [1]) | mortality at 50 ppm (Tetranychus urticae [2]) | mortality at 200 ppm (Tetranychus urticae [3]) | mortality at 3.1 ppm (Tetranychus urticae [4]) | mortality at 12.5 ppm (Tetranychus urticae [5])
39 | CCc1nn(C)c(C(=O)NCc2ccc(OC(C)C)cc2)c1Cl | 80% | 0% | 30% | – | –
40 | CCc1nn(C)c(C(=O)NCc2ccc(N)cc2)c1Cl | 0% | 0% | 0% | – | –
41 | Cc1nn(C)c(C(=S)NCc2ccc(C(C)(C)C)cc2)c1Cl | 80% | 0% | 30% | – | –
42 | Cc1nn(C)c(C(=O)OCc2ccc(C(C)(C)C)cc2)c1Br | 0% | 0% | 0% | – | –
43 | Cc1nn(C)c(C(=O)NC(c2ccccc2)C(C)C)c1Cl (stereo not given) | 0% | 0% | 0% | – | –
44 | CCc1nn(C)c(C(=O)NCc2ccc([S+](C)[O-])cc2)c1Cl (stereo not given) | 0% | 0% | 0% | – | –
45 | Cc1nn(C(F)F)c(C(=O)NCc2ccc(C(C)(C)C)cc2)c1Cl | 0% | 0% | 0% | – | –
46 | CCCCn1nc(C)c(Cl)c1C(=O)NCc1ccc(C(C)(C)C)cc1 | 0% | 0% | 0% | – | –
47 | CCCOc1ccc(CNC(=O)c2c(Cl)c(CC)nn2C)cc1 | 100% | 0% | 80% | – | –
48 | Cc1nn(C)c(C(=O)NC(C)c2ccc(C(C)(C)C)cc2)c1Br (stereo not given) | 100% | 80% | 100% | – | –
49 | Cc1nn(C)c(C(=O)SCc2ccc(C(C)(C)C)cc2)c1Cl | 30% | 0% | 0% | – | –
50 | Cc1nn(C)c(C(=O)NCc2ccccc2C(F)(F)F)c1Cl | 0% | 0% | 0% | – | –
51 | CCc1nn(C)c(C(=O)NCc2ccc(C#N)cc2)c1Cl | 0% | 0% | 0% | – | –
52 | Cc1nn(-c2ccccc2)c(C(=O)NCc2ccc(C(C)(C)C)cc2)c1Cl | 0% | 0% | 0% | – | –
53 | CCc1nn(C)c(C(=O)NCc2ccc(OC(F)F)cc2)c1Cl | 80% | 0% | 30% | – | –
54 | Cc1nn(C)c(C(=O)NC(C)c2ccccc2)c1Br (stereo not given) | 0% | 0% | 0% | – | –
55 | Cc1nn(C)c(C(=O)N(C)Cc2ccc(C(C)(C)C)cc2)c1Cl | 0% | 0% | 0% | – | –
56 | CCc1nn(C)c(C(=O)NCc2ccc(OC)cc2)c1Cl | 0% | 0% | 0% | – | –
57 | Cc1nn(C)c(C(=O)NC(C)(C)c2ccccc2)c1Br | 0% | 0% | 0% | – | –
